The numbers were not newly measured in patent US20130102469A1, “Method and compound for removing flora from sewer lines” (Swartz family dba Olvidium, priority 2011, published 2013), which cites them from elsewhere.

In the data set the test system is tree roots.

For the molecule `N#Cc1c(Cl)cccc1Cl` [Dichlobenil, 2,6 dichlorobenzonitrile], the “distance back from the contact site over which roots are killed” value (sewer line root control) is 1-2 ″.
As for `CNC(=S)[S-].[Na+]` [Metham Sodium], the root kill (inside the pipe and outside the pipe where the gas travels) is given as 100%.
Turning to `c1cc[n+]2c(c1)-c1cccc[n+]1CC2` [Diquat], the “root kill (in words)” value (sewer line use, roots coated with organic detritus) was “spotty and inconsistent root kill”.
